One compound from patent publication US9464077B2, “Nitrogen-containing aromatic heterocyclic compound” (Astellas Pharma Inc., priority 2012, dated 2016) can be followed below.

The structures appear in SMILES notation.

For this assay, the system named is FGFR3-BAIAP2L1-expressing NIH3T3 cells. As to the kind of experiment: Anchorage-independent cell growth inhibition, spheroid plate. The format is cell-based. The conditions noted are these: Mus musculus, NIH3T3, 96 h, 4 days, read-out: growth inhibition rate FGFR3-BAIAP2L1-expressing NIH3T3 Cells. How it is done:
In a 96-well spheroid plate (Sumilon Celltight Spheroid 96U; Sumitomo Bakelite), FGFR3-BAIAP2L1-expressing NIH3T3 cells were seeded at 1×10^3 cells per well in D-MEM medium containing 10% fetal bovine serum. A well supplemented with only medium was also prepared for a positive control. Culturing was performed overnight in the presence of 5% CO2 at 37° C. followed by addition of test compounds (final concentrations: 100 nM, 10 nM, and 1 nM). As a negative control, DMSO used as a solvent for the compounds was added at the same concentration (0.1%) as in the case of addition of the compounds. Then, culturing was performed in the presence of 5% CO2 at 37° C. for 4 days, and a cell counting reagent (CellTiter-Glo™ Luminescent Cell Viability Assay; Promega) was added and the resulting mixture was stirred for 20 minutes followed by measurement with a luminometer.

As to `COc1cc(OC)c(F)c(COc2cnc(Nc3ccc(N4CCC(NCCO)CC4)cc3)nc2)c1F` [Example 299], the inhibition at 0.001 µM (1 nM) stood at 15%. In addition, the inhibition at 0.01 µM (10 nM) turned out to be 81%. Also, where the note is “100 nM”, the inhibition at 0.1 µM was determined as 91%.

One may read the inhibition as how much of the control response was suppressed.
